# Test results reported in patent publication US20260356819A1, “OXOISOINDOLINYL-SUBSTITUTED […] DERIVATIVE AND USE THEREOF” (GLUETACS THERAPEUTICS (SHANGHAI) CO., LTD., priority 2023, published 2026).
# Columns and labels:
# Format in all cases: cell-based
# Details in all cases: compounds at 50 nM and 500 nM
# WEE1 = target: T1, WEE1 (Homo sapiens, UniProt P30291+Q96SW2); experiment: Western blot degradation of WEE1 in hPBMCs (24 h)
# T1 construct: The supernatant was aspirated as the extracted total cell protein; endogenous in cells; host or cells: human peripheral blood mononuclear cells (hPBMCs)
# T1 sequence (P30291 whole entry): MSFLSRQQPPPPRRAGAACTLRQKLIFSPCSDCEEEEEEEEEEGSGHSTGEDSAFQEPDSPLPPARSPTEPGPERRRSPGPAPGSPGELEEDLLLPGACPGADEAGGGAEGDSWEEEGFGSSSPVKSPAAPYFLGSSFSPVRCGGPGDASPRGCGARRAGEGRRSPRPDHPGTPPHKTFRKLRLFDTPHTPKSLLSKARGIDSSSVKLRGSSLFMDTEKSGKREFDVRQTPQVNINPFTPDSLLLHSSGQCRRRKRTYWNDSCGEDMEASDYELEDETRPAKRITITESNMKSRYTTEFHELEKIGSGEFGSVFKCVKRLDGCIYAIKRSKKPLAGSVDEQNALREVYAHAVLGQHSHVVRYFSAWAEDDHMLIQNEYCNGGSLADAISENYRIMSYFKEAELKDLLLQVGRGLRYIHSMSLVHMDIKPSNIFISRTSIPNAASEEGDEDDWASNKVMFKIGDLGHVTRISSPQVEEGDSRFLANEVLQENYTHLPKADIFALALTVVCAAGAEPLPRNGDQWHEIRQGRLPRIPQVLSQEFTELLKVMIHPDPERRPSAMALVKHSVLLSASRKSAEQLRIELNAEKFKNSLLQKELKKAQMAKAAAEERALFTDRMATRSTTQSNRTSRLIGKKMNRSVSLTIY
# T1 sequence (Q96SW2 whole entry): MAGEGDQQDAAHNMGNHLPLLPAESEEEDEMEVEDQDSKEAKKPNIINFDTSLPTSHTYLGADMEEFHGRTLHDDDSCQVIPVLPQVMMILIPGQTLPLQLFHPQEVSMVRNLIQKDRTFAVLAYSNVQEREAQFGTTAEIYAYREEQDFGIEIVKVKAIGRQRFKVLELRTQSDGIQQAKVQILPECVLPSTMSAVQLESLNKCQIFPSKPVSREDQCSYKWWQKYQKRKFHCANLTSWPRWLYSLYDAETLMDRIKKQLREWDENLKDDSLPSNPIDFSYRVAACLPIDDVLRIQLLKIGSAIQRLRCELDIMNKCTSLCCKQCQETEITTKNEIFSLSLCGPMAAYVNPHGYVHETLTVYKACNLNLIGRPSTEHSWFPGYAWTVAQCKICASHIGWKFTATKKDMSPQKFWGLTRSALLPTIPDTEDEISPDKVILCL
# T1 sequence (Q16531 whole entry partner): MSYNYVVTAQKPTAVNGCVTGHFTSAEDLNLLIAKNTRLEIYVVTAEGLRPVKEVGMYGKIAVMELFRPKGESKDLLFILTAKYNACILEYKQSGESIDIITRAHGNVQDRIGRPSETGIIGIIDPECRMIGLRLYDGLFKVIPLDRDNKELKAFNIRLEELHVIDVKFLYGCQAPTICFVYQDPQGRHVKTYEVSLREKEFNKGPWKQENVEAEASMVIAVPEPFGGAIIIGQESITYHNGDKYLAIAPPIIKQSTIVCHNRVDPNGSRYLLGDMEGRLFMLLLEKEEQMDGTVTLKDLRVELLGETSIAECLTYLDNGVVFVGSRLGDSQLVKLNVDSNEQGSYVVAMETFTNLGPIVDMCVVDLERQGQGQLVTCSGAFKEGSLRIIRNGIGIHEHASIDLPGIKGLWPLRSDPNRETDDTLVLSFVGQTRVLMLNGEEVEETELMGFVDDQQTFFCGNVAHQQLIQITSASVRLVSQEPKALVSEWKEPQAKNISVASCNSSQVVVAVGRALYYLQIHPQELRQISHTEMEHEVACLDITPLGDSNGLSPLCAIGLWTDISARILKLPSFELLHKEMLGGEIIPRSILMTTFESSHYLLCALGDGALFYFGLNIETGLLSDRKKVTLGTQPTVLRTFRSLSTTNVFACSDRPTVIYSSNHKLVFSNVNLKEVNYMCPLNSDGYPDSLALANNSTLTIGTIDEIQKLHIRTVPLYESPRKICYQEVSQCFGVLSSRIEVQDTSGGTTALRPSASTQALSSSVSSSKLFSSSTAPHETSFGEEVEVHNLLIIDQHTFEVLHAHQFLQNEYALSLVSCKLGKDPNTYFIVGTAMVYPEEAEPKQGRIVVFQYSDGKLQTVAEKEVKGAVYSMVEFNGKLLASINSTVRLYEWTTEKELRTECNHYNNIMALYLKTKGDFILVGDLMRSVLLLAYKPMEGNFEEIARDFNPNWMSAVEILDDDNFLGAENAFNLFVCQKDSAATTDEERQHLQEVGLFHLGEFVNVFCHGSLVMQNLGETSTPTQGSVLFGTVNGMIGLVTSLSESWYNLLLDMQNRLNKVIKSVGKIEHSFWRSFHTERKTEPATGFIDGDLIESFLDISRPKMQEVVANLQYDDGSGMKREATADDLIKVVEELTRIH
# How it was run: (§1)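 Thawed human PBMCs, 1×10^6 cells/mL; cpd 50 nM or 500 nM, 24 h; RIPA lysis, BCA, SDS-PAGE, NC transfer, immunoblot. Readout: grayscale/internal control → % remaining; degradation = 1 − remaining.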
# IKZF1 = target: T2, IKZF1 (Homo sapiens, UniProt Q13422+Q96SW2); experiment: Western blot degradation of IKZF1 in hPBMCs (24 h)
# T2 construct: The supernatant was aspirated as the extracted total cell protein; endogenous in cells; host or cells: human peripheral blood mononuclear cells (hPBMCs)
# T2 sequence (Q13422 whole entry): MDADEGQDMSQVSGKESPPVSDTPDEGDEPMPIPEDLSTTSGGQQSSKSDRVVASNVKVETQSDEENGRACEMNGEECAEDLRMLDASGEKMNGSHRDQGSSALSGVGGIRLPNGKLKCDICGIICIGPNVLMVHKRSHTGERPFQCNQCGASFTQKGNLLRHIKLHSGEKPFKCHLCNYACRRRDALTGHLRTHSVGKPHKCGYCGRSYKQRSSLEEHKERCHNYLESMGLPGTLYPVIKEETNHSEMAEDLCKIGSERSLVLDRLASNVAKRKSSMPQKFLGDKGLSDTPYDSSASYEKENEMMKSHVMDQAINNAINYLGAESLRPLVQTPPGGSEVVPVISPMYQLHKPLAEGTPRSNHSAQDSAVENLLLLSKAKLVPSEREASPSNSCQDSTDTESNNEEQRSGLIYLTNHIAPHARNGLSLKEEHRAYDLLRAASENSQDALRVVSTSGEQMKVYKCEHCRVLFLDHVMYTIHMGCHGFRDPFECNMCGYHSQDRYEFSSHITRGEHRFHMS
# T2 sequence (Q96SW2 whole entry): as the sequence (Q96SW2 whole entry) above
# T2 sequence (Q16531 whole entry partner): as the sequence (Q16531 whole entry partner) above
# How it was run: as §1
# IKZF2 = target: T3, IKZF2 (Homo sapiens, UniProt Q96SW2+Q9UKS7); experiment: Western blot degradation of IKZF2 in hPBMCs (24 h)
# T3 construct: The supernatant was aspirated as the extracted total cell protein; endogenous in cells; host or cells: human peripheral blood mononuclear cells (hPBMCs)
# T3 sequence (Q9UKS7 whole entry): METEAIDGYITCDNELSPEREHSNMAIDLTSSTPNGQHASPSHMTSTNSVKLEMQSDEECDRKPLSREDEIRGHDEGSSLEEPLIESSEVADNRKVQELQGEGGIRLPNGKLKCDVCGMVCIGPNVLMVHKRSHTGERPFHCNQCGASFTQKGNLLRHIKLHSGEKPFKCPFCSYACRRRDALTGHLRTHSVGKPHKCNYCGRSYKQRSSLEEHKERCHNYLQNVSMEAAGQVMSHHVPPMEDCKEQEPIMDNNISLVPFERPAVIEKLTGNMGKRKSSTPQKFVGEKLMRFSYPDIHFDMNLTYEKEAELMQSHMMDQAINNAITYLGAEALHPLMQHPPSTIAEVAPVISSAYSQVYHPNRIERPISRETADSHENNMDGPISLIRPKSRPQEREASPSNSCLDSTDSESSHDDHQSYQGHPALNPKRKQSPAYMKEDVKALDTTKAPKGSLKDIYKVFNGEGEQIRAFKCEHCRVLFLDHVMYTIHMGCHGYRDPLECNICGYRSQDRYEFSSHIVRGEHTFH
# T3 sequence (Q96SW2 whole entry): as the sequence (Q96SW2 whole entry) above
# T3 sequence (Q16531 whole entry partner): as the sequence (Q16531 whole entry partner) above
# How it was run: as §1
# IKZF3 = target: T4, IKZF3 (Homo sapiens, UniProt Q96SW2+Q9UKT9); experiment: Western blot degradation of IKZF3 in hPBMCs (24 h)
# T4 construct: The supernatant was aspirated as the extracted total cell protein; endogenous in cells; host or cells: human peripheral blood mononuclear cells (hPBMCs)
# T4 sequence (Q9UKT9 whole entry): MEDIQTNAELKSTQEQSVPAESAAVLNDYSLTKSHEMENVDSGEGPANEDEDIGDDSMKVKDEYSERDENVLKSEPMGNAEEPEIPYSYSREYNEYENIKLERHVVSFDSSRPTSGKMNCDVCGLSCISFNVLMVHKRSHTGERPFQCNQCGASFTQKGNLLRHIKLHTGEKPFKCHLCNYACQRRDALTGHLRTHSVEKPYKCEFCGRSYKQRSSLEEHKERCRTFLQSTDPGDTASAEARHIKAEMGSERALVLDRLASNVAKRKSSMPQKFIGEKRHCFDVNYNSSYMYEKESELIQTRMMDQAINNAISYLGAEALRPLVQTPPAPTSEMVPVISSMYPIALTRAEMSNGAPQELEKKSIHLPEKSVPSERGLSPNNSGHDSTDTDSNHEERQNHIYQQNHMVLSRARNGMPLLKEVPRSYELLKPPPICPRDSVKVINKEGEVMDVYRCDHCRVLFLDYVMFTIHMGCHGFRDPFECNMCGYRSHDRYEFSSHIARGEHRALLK
# T4 sequence (Q96SW2 whole entry): as the sequence (Q96SW2 whole entry) above
# T4 sequence (Q16531 whole entry partner): as the sequence (Q16531 whole entry partner) above
# How it was run: as §1
# CK1α = target: T5, CK1α (Homo sapiens, UniProt P48729+Q96SW2); experiment: Western blot degradation of CK1α in hPBMCs (24 h)
# T5 construct: The supernatant was aspirated as the extracted total cell protein; endogenous in cells; host or cells: human peripheral blood mononuclear cells (hPBMCs)
# How it was run: as §1
# GSPT1 = target: T6, GSPT1 (Homo sapiens, UniProt P15170+Q96SW2); experiment: Western blot degradation of GSPT1 in hPBMCs (24 h)
# T6 construct: The supernatant was aspirated as the extracted total cell protein; endogenous in cells; host or cells: human peripheral blood mononuclear cells (hPBMCs)
# T6 sequence (P15170 whole entry): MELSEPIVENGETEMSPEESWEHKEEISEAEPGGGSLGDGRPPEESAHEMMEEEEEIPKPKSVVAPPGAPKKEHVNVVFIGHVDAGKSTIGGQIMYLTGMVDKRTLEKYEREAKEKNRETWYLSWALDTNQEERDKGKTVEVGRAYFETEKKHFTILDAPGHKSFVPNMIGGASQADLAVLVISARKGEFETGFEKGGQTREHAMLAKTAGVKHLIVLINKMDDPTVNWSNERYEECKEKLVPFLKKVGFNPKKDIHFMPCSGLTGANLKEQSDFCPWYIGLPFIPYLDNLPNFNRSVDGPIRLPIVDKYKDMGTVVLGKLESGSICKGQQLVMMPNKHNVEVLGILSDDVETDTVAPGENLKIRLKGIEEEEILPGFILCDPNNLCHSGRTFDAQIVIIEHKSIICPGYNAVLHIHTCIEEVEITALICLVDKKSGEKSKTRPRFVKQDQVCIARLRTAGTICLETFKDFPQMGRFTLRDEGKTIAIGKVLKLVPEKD
# T6 sequence (Q96SW2 whole entry): as the sequence (Q96SW2 whole entry) above
# T6 sequence (Q16531 whole entry partner): as the sequence (Q16531 whole entry partner) above
# How it was run: as §1
Compound,WEE1 substrate protein remaining % (WEE1),IKZF1 substrate protein remaining % (IKZF1),IKZF2 substrate protein remaining % (IKZF2),IKZF3 substrate protein remaining % (IKZF3),CK1α substrate protein remaining % (CK1α),GSPT1 substrate protein remaining % (GSPT1)
"O=C1CCN(N2Cc3cc(CN4CC=C(c5c[nH]c6cc(F)ccc56)CC4)ccc3C2=O)C(=O)N1 [GT-07574, 1-(5-((4-(6-fluoro-1H-indol-3-yl)-3,6-dihydropyridin-1(2H)-yl)methyl)-1-oxoisoindolin-2-yl)dihydropyrimidine-2,4(1H,3H)-dione]",A (0% ≤ substrate protein remaining % ≤80%),B (80%< substrate protein remaining % ≤100%),A (0% ≤ substrate protein remaining % ≤80%),B (80%< substrate protein remaining % ≤100%),A (0% ≤ substrate protein remaining % ≤80%),A (0% ≤ substrate protein remaining % ≤80%)
"O=C1CCN(N2Cc3cc(CN4CCC(c5c[nH]c6ncccc56)CC4)ccc3C2=O)C(=O)N1 [GT-07576, 1-(5-((4-(1H-pyrrolo[2,3-b]pyridin-3-yl)piperidin-1-yl)methyl)-1-oxoisoindolin-2-yl)dihydropyrimidine-2,4(1H,3H)-dione]",A (0% ≤ substrate protein remaining % ≤80%),A (0% ≤ substrate protein remaining % ≤80%),A (0% ≤ substrate protein remaining % ≤80%),B (80%< substrate protein remaining % ≤100%),A (0% ≤ substrate protein remaining % ≤80%),A (0% ≤ substrate protein remaining % ≤80%)
"O=C1CCN(N2Cc3cc(CN4CCC(n5c(=O)[nH]c6cc(F)ccc65)CC4)ccc3C2=O)C(=O)N1 [GT-07579, 1-(5-((4-(5-fluoro-2-oxo-2,3-dihydro-1H-benzo[d]imidazol-1-yl)piperidin-1-yl)methyl)-1-oxoisoindolin-2-yl)dihydropyrimidine-2,4(1H,3H)-dione]",A (0% ≤ substrate protein remaining % ≤80%),A (0% ≤ substrate protein remaining % ≤80%),A (0% ≤ substrate protein remaining % ≤80%),B (80%< substrate protein remaining % ≤100%),B (80%< substrate protein remaining % ≤100%),A (0% ≤ substrate protein remaining % ≤80%)
"O=C1CCN(N2C(=O)c3ccc(CN4CC=C(c5c[nH]c6cc(F)ccc56)CC4)cc3C2=O)C(=O)N1 [GT-07580, 2-(2,4-dioxotetrahydropyrimidin-1(2H)-yl)-5-((4-(6-fluoro-1H-indol-3-yl)-3,6-dihydropyridin-1(2H)-yl)methyl)isoindoline-1,3-dione]",A (0% ≤ substrate protein remaining % ≤80%),A (0% ≤ substrate protein remaining % ≤80%),A (0% ≤ substrate protein remaining % ≤80%),A (0% ≤ substrate protein remaining % ≤80%),B (80%< substrate protein remaining % ≤100%),A (0% ≤ substrate protein remaining % ≤80%)
"Cn1cc(C2CCN(Cc3ccc4c(c3)C(=O)N(N3CCC(=O)NC3=O)C4=O)CC2)c2ccc(F)cc21 [GT-07581, 2-(2,4-dioxotetrahydropyrimidin-1(2H)-yl)-5-((4-(6-fluoro-1-methyl-1H-indol-3-yl)piperidin-1-yl)methyl)isoindoline-1,3-dione]",A (0% ≤ substrate protein remaining % ≤80%),A (0% ≤ substrate protein remaining % ≤80%),A (0% ≤ substrate protein remaining % ≤80%),B (80%< substrate protein remaining % ≤100%),B (80%< substrate protein remaining % ≤100%),A (0% ≤ substrate protein remaining % ≤80%)
"O=C1CCN(N2C(=O)c3ccc(CN4CCC(c5c[nH]c6ncccc56)CC4)cc3C2=O)C(=O)N1 [GT-07582, 5-((4-(1H-pyrrolo[2,3-b]pyridin-3-yl)piperidin-1-yl)methyl)-2-(2,4-dioxotetrahydropyrimidin-1(2H)-yl)isoindoline-1,3-dione]",A (0% ≤ substrate protein remaining % ≤80%),A (0% ≤ substrate protein remaining % ≤80%),A (0% ≤ substrate protein remaining % ≤80%),B (80%< substrate protein remaining % ≤100%),B (80%< substrate protein remaining % ≤100%),A (0% ≤ substrate protein remaining % ≤80%)
"O=C1CCN(N2C(=O)c3ccc(CN4CCC(n5c(=O)[nH]c6cc(F)ccc65)CC4)cc3C2=O)C(=O)N1 [GT-07583, 2-(2,4-dioxotetrahydropyrimidin-1(2H)-yl)-5-((4-(5-fluoro-2-oxo-2,3-dihydro-1H-benzo[d]imidazol-1-yl)piperidin-1-yl)methyl)isoindoline-1,3-dione]",A (0% ≤ substrate protein remaining % ≤80%),B (80%< substrate protein remaining % ≤100%),B (80%< substrate protein remaining % ≤100%),B (80%< substrate protein remaining % ≤100%),B (80%< substrate protein remaining % ≤100%),A (0% ≤ substrate protein remaining % ≤80%)
"O=C1CCN(N2Cc3cc(CN4CCC(N5CCCc6cc(F)ccc65)CC4)ccc3C2=O)C(=O)N1 [GT-07584, 1-(5-((4-(6-fluoro-3,4-dihydroquinolin-1(2H)-yl)piperidin-1-yl)methyl)-1-oxoisoindolin-2-yl)dihydropyrimidine-2,4(1H,3H)-dione]",A (0% ≤ substrate protein remaining % ≤80%),A (0% ≤ substrate protein remaining % ≤80%),B (80%< substrate protein remaining % ≤100%),B (80%< substrate protein remaining % ≤100%),B (80%< substrate protein remaining % ≤100%),A (0% ≤ substrate protein remaining % ≤80%)
"O=C1CCN(N2Cc3cc(CN4CCC(N5CCOc6cc(F)ccc65)CC4)ccc3C2=O)C(=O)N1 [GT-07585, 1-(5-((4-(7-fluoro-2,3-dihydro-4H-benzo[b][1,4]oxazin-4-yl)piperidin-1-yl)methyl)-1-oxoisoindolin-2-yl)dihydropyrimidine-2,4(1H,3H)-dione]",A (0% ≤ substrate protein remaining % ≤80%),A (0% ≤ substrate protein remaining % ≤80%),B (80%< substrate protein remaining % ≤100%),B (80%< substrate protein remaining % ≤100%),B (80%< substrate protein remaining % ≤100%),A (0% ≤ substrate protein remaining % ≤80%)
"O=C1CCN(N2Cc3cc(CN4CCC(N5C(=O)COc6cc(F)ccc65)CC4)ccc3C2=O)C(=O)N1 [GT-07586, 1-(5-((4-(7-fluoro-3-oxo-2,3-dihydro-4H-benzo[b][1,4]oxazin-4-yl)piperidin-1-yl)methyl)-1-oxoisoindolin-2-yl)dihydropyrimidine-2,4(1H,3H)-dione]",A (0% ≤ substrate protein remaining % ≤80%),A (0% ≤ substrate protein remaining % ≤80%),B (80%< substrate protein remaining % ≤100%),B (80%< substrate protein remaining % ≤100%),B (80%< substrate protein remaining % ≤100%),A (0% ≤ substrate protein remaining % ≤80%)
"O=C1CCN(N2Cc3cc(CN4CCC(C5CCOc6cc(F)ccc65)CC4)ccc3C2=O)C(=O)N1 (stereo not drawn) [GT-07587, 1-(5-((4-(7-fluorochroman-4-yl)piperidin-1-yl)methyl)-1-oxoisoindolin-2-yl)dihydropyrimidine-2,4(1H,3H)-dione]",A (0% ≤ substrate protein remaining % ≤80%),A (0% ≤ substrate protein remaining % ≤80%),B (80%< substrate protein remaining % ≤100%),B (80%< substrate protein remaining % ≤100%),B (80%< substrate protein remaining % ≤100%),A (0% ≤ substrate protein remaining % ≤80%)
"O=C1CCN(N2Cc3cc(CN4CCC(=C5CCOc6cc(F)ccc65)CC4)ccc3C2=O)C(=O)N1 [GT-07588, 1-(5-((4-(7-fluorochroman-4-ylidene)piperidin-1-yl)methyl)-1-oxoisoindolin-2-yl)dihydropyrimidine-2,4(1H,3H)-dione]",B (80%< substrate protein remaining % ≤100%),B (80%< substrate protein remaining % ≤100%),B (80%< substrate protein remaining % ≤100%),B (80%< substrate protein remaining % ≤100%),B (80%< substrate protein remaining % ≤100%),A (0% ≤ substrate protein remaining % ≤80%)
